Like-named read-outs stand apart in the source and are kept apart here. A value given as a limit tells only on which side of the number the result lay.

One may read the IC50 as the concentration that gives 50% inhibition.

The test system of one test is MOLM14. Kind of test: Proliferation assay B (spheroid assay) MOLM14. Format: cell-based, human. The note with it: MOLM14 cells, confluence at day 8, absolute IC50, read-out: (3b) Spheroid assay MOLM14 (IC50(μM)) Assay B. The essentials:
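IC50 derived from % effect on day-8 imaged confluence, scaled between DMSO-treated cells (high) and 1 μM staurosporine (low), using a variable-slope fit constrained 0-100%. Cells seeded as spheroids in ultra-low-attachment plates and exposed to compound for 8 days, 0.3% DMSO.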

For test [1], the system named is MV-4-11. Description: Proliferation assay B (spheroid assay) MV-4-11. Format: cell-based, human. The note with it: Homo sapiens, MV4-11, 192 h, MV-4-11 cells, confluence at day 8, absolute IC50; read-out: (3b) Spheroid assay MV-4--11 (IC50(μM)) Assay B. How it is done:
3b) Proliferation Assay B
(§1) The anti-proliferative effect of menin/MLL protein/protein interaction inhibitor test compounds was assessed in human leukemia cell lines. The cell lines MV-4-11 and MOLM14 harbor MILL translocations and express the MILL fusion proteins MLL-AF4 and MLL-AF9, respectively, as well as the wildtype protein from the second allele. […] K562 was used as a control cell line containing two MLL wildtype alleles in order to exclude compounds that display general cytotoxic effects.
(§2) MV-4-11 and MOLM14 were cultured in RPMI-1640 (Sigma Aldrich) supplemented with 10% fetal bovine serum (HyClone), 2 mM L-glutamine (Sigma Aldrich) and 50 μg/ml gentamycin (Gibco). K562 were propagated in RPMI-1640 (Sigma Aldrich) supplemented with 20% fetal bovine serum (HyClone), 2 mM L-glutamine (Sigma Aldrich) and 50 μg/ml gentamycin (Gibco).
(§3) In order to assess the anti-proliferative effects, 1,500 MV-4-11, 300 MOLM14 cells or 750 K562 cells were seeded in 200 μl media per well in 96-well round bottom, ultra-low attachment plates (Costar, catalogue number 7007). Cell seeding numbers were chosen based on growth curves to ensure linear growth throughout the experiment. Test compounds were added at different concentrations and the DMSO content was normalized to 0.3%. Cells were incubated for 8 d at 37° C. and 5% CO2. Spheroid like growth was measured in real-time by live-cell imaging (IncuCyteZOOM, Essenbio, 4× objective) acquiring images at day 8. Confluence (%) as a measure of spheroid size was determined using an integrated analysis tool.
In order to determine the effect of the test compounds over time, the confluence in each well as a measure of spheroid size, was calculated. Confluence […] at the beginning of the experiment (t=0) was used as baseline for the calculation.
Absolute IC50 values were calculated as percent change in confluence as follows:
LC=Low Control: cells treated with 1 μM of the cytotoxic agent staurosporin
HC=High Control: Mean confluence (%) (DMSO treated cells) % Effect=100−(100*(Sample−LC)/(HC−LC))
To determine the IC50 a curve is fitted to the plot of % Effect vs Log 10 compound concentration using a sigmoidal fit with a variable slope and fixing the maximum to 100% and the minimum to 0%.

In the next test the target is T1, menin (Homo sapiens, UniProt O00255, T541A).
T1 construct: Menin (a.a. 1-610-6×his tag)
T1 sequence (O00255 with tags, fused parts or gaps T541A): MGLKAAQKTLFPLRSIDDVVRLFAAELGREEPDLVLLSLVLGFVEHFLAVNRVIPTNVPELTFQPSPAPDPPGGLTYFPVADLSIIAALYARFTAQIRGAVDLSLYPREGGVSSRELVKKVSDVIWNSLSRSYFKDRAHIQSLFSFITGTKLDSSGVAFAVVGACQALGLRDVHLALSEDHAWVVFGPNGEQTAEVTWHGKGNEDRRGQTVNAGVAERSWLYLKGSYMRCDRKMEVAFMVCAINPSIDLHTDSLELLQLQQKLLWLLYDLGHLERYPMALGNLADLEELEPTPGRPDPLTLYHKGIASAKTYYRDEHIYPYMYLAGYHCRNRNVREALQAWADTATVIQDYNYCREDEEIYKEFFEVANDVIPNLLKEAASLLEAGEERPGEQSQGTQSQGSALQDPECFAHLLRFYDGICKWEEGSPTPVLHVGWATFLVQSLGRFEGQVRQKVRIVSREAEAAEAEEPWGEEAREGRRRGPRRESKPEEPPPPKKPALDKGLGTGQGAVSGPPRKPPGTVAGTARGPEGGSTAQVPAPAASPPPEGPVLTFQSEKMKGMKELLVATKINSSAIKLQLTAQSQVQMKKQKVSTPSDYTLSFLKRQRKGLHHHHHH
Kind of test: Menin/MLL homogenous time-resolved fluorescence (HTRF) assay. Format: binding. Particulars: location 2; read-out: (2) location 2 Menin HTRF assay (IC50 (nM)). The essentials:
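Displacement of 75 nM FITC-MBM1 from terbium-cryptate-labeled His-tagged menin 1-610 ([…]) was read as the 520/490 nm HTRF ratio. Compound (11-point, 3-fold series) got 5 min with menin before peptide, then 15 min at ambient; 0.5% DMSO, Tris pH 7.5.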
(In general: In TR-FRET formats the signal depends on donor and acceptor labels being close together.)

Test [2] concerns MV-4-11. Kind of test: Proliferation assay A (spheroid assay) MV-4-11. Format: cell-based, human. The note with it: MV-4-11 cells, 8 d, AUC of confluence against time, absolute IC50, read-out: (3a) Spheroid assay MV-4-11 (IC50(μM)) Assay A. The procedure:
3a) Proliferation Assay A
as §1, §2
as §3, with “MOLM14” for “MOLM14 cells”, “monitored” for “measured”, “one image every four hours for 8 d.” for “images at day 8.”
In order to determine the cumulative effect of the test compounds over time, the area under the curve (AUC) in a plot of confluence against time was calculated. Confluence at the beginning of the experiment (t=0) was used as baseline for the AUC calculation.
Absolute IC50 values were calculated according to the following procedure: % Control=(AUC sample/AUC control)*100
AUC control mean AUC of control values (cells without compound/DMSO as vehicle control)
A non-linear curve fit was applied using the least squares (ordinary) fit method to the plot of % control versus compound concentration. Based on this, the absolute IC50 value (half maximal inhibitory concentration of the test compound causing an anti-proliferative effect of 50% relative to the vehicle control) was calculated.

For the compound `Fc1ccc(NC2CC3(CCN(c4ncnc5sc(CC(F)(F)F)cc45)C3)C2)cc1` (mixture of isomers) [Compound 158], the IC50 in the test on MOLM14 (Homo sapiens, MOLM-14, 192 h) is 1.98 µM; with MV-4-11 [1] it was 2.41 µM; on menin, 72.2 nM.
On the same counts, the results for `N#Cc1ccccc1NC1CC2(CCN(c3ncnc4sc(CC(F)(F)F)cc34)C2)C1` (mixture of isomers) [Compound 162] are over 3.75 µM, 2.84 µM and 90 nM.
As for `N#Cc1cccc(NC2CC3(CCN(c4ncnc5sc(CC(F)(F)F)cc45)C3)C2)c1` (mixture of isomers) [Compound 163], the IC50 was over 3.75 µM in the test with MOLM14 (Homo sapiens, MOLM-14, 192 h); over 3.75 µM with MV-4-11 [1]; 77.6 nM at menin.
Regarding `N#Cc1ccc(NC2CC3(CCN(c4ncnc5sc(CC(F)(F)F)cc45)C3)C2)cc1` (mixture of isomers) [Compound 164], the IC50 is 1.97 µM with MOLM14 (Homo sapiens, MOLM-14, 192 h); 1.09 µM in the test with MV-4-11 [1]; 12.2 nM on menin.
For `CS(=O)(=O)N1CCC(CNC(=O)c2ccc(NC3CC4(CCN(c5ncnc6sc(CC(F)(F)F)cc56)C4)C3)cc2)CC1` (mixture of isomers) [Compound 177], in that order: 1.22 µM, 1.02 µM and 16.2 nM.
On the same counts, the results for `Cn1nnc2ccc(NC3CC4(CCN(c5ncnc6sc(CC(F)(F)F)cc56)C4)C3)cc21` (mixture of isomers) [Compound 216] are over 3.75 µM, over 3.75 µM and 38 nM.
For the compound `CN1CCN(Cc2cc(NC3CC4(CCN(c5ncnc6sc(CC(F)(F)F)cc56)C4)C3)ccc2C#N)CC1` (mixture of isomers) [Compound 225], the IC50 with MV-4-11 [1] came to 1.95 µM; on menin, 22.7 nM.
On the same counts, the results for `CNC(=O)c1ccc(NC2CC3(CCN(c4ncnc5sc(CC(F)(F)F)cc45)C3)C2)cc1NCCN(C)C` (mixture of isomers) [Compound 239] are over 3.75 µM and 33.6 nM.
As for `CN1CCN(c2cc(NC3CC4(CCN(c5ncnc6sc(CC(F)(F)F)cc56)C4)C3)ccc2C#N)CC1` (mixture of isomers) [Compound 240], the IC50 in the test with MV-4-11 [1] came to 1.14 µM; at menin it was 8.6 nM.
In the case of `CNC(=O)c1ccc(NC2CC3(CCN(c4ncnc5sc(CC(F)(F)F)cc45)C3)C2)cc1CCCN1CCN(S(C)(=O)=O)CC1` (mixture of isomers) [Compound 251], the IC50 in the test with MOLM14 (Homo sapiens, MOLM-14, 192 h) is over 3.75 µM; in the test with MV-4-11 [1] it was over 3.75 µM; at menin, 171 nM.
Take `CNc1nc(N2CCC3(CC(Nc4ccc(C#N)cn4)C3)C2)c2cc(CC(F)(F)F)sc2n1` (mixture of isomers) [Compound 271]: the IC50 in the test on MOLM14 (Homo sapiens, MOLM-14, 192 h) is over 3.75 µM; in the test with MV-4-11 [1] it was over 3.75 µM; at menin, 22.5 nM.
On to `O=c1[nH]c2cc(NC3CC4(CCN(c5ncnc6sc(CC(F)(F)F)cc56)C4)C3)ccc2o1` (mixture of isomers) [Compound 308], for which the IC50 in the test with MOLM14 (Homo sapiens, MOLM-14, 192 h) is over 3.75 µM; with MV-4-11 [1] it was 2.64 µM; on menin, 5.6 nM.
For the compound `FC(F)(F)Cc1cc2c(N3CCC4(CC(Nc5ccc6cnoc6c5)C4)C3)ncnc2s1` (mixture of isomers) [Compound 315], the half-maximal inhibitory concentration (IC50) in the test on MOLM14 (Homo sapiens, MOLM-14, 192 h) was 3.41 µM; in the test with MV-4-11 [1], 1.22 µM; on menin, 4.2 nM.
For `O=c1[nH]c2ccc(NC3CC4(CCN(c5ncnc6sc(CC(F)(F)F)cc56)C4)C3)cc2[nH]1` (mixture of isomers) [Compound 319], in that order: over 3.75 µM, over 3.75 µM and 17.4 nM.
As to `O=C(c1ccc(NC2CC3(CCN(c4ncnc5sc(CC(F)(F)F)cc45)C3)C2)cc1)N1CCOCC1` (mixture of isomers) [Compound 333], the IC50 was 0.14 µM with MOLM14 (Homo sapiens, MOLM-14, 192 h); 0.12 µM in the test with MV-4-11 [1]; 10.3 nM at menin.
With `COc1cc(NC2CC3(CCN(c4ncnc5sc(CC(F)(F)F)cc45)C3)C2)ccn1` (mixture of isomers) [Compound 341], the half-maximal inhibitory concentration (IC50) with MOLM14 (Homo sapiens, MOLM-14, 192 h) is 3.03 µM; in the test with MV-4-11 [2] (Homo sapiens, MV4-11, 192 h), 0.84 µM; at menin, 50.3 nM.
For the compound `Nc1nc(N2CCC3(CC(Nc4ccc5[nH]c(=O)oc5c4)C3)C2)c2cc(CC(F)(F)F)sc2n1` (mixture of isomers) [Compound 384], the IC50 with MOLM14 (Homo sapiens, MOLM-14, 192 h) was 1.49 µM; with MV-4-11 [1], over 3.75 µM; on menin it was 32.6 nM.
`CNC(=O)c1ccc(NC2CC3(CCN(c4ncnc5sc(CC(F)(F)F)cc45)C3)C2)cc1` (single isomer, unassigned) [Compound 95]: the concentration for half-maximal inhibition (IC50) came out at 0.82 µM in the test with MOLM14, 1.27 µM in the test on MV-4-11 [2] and 34.6 nM on menin.
As for `CS(=O)(=O)NCCCNC(=O)c1ccc(NC2CC3(CCN(c4ncnc5sc(CC(F)(F)F)cc45)C3)C2)nc1` (single isomer, unassigned) [Compound 275], the IC50 with MV-4-11 [1] was 1.09 µM; at menin, 2.4 nM.
Regarding `CNS(=O)(=O)c1ccc(NC2CC3(CCN(c4ncnc5sc(CC(F)(F)F)cc45)C3)C2)cc1` (single isomer, unassigned) [Compound 318], the IC50 with MOLM14 (Homo sapiens, MOLM-14, 192 h) was 3.07 µM; in the test with MV-4-11 [2] (Homo sapiens, MV4-11, 192 h), 0.6 µM; on menin, 8.1 nM.
For `FC(F)(F)Cc1cc2c(N3CCC4(CC(Nc5ccc(-c6cn[nH]c6)cc5)C4)C3)ncnc2s1` (single isomer, unassigned) [Compound 327], in that order: over 3.75 µM, 0.56 µM and 8.4 nM.
On the same counts, the results for `CNC(=O)c1ccc(NC2CC3(CCN(c4nc(NC)nc5sc(CC(F)(F)F)cc45)C3)C2)cc1` (centres unmarked) [Compound 64] are 0.92 µM, 0.14 µM and 2.4 nM.

These data come from patent US11396517B1, “Exo-aza spiro inhibitors of menin-MLL interaction” (Janssen Pharmaceutica NV, priority 2017, dated 2022).
